The NIST ThermoML archive (doi:10.1016/j.jct.2016.09.030)

Assay: xn = mol fraction of the nth substance listed
Conditions: 100 kPa, Liquid; for viscosity: Concentric cylinders viscometry; for mass density: Vibrating tube method

CCCCCCCC(=O)OCC [ethyl octanoate] + CC(C)CCO
Conditions | mass density [kg/m3] | viscosity [mPa·s]
288.15 K, x1 = 0.1 | 822.09 | 3.559
288.15 K, x1 = 0.2001 | 830.4 | 2.806
288.15 K, x1 = 0.3 | 837.58 | 2.382
288.15 K, x1 = 0.4 | 843.9 | 2.117
288.15 K, x1 = 0.5001 | 849.54 | 1.951
288.15 K, x1 = 0.5999 | 854.63 | 1.856
288.15 K, x1 = 0.7003 | 859.29 | 1.759
288.15 K, x1 = 0.7998 | 863.5 | 1.716
288.15 K, x1 = 0.9001 | 867.37 | 1.687
288.15 K, x1 = 1 | 870.88 | 1.686
293.15 K, x1 = 0.1 | 818.23 | 3.06
293.15 K, x1 = 0.2001 | 826.44 | 2.439
293.15 K, x1 = 0.3 | 833.53 | 2.11
293.15 K, x1 = 0.4 | 839.78 | 1.891
293.15 K, x1 = 0.5001 | 845.38 | 1.752
293.15 K, x1 = 0.5999 | 850.42 | 1.673
293.15 K, x1 = 0.7003 | 855.04 | 1.593
293.15 K, x1 = 0.7998 | 859.23 | 1.557
293.15 K, x1 = 0.9001 | 863.07 | 1.534
293.15 K, x1 = 1 | 866.58 | 1.537
298.15 K, x1 = 0.1 | 814.36 | 2.684
298.15 K, x1 = 0.2001 | 822.46 | 2.177
298.15 K, x1 = 0.3 | 829.47 | 1.885
298.15 K, x1 = 0.4 | 835.66 | 1.702
298.15 K, x1 = 0.5001 | 841.2 | 1.586
298.15 K, x1 = 0.5999 | 846.2 | 1.518
298.15 K, x1 = 0.7003 | 850.78 | 1.451
298.15 K, x1 = 0.7998 | 854.94 | 1.422
298.15 K, x1 = 0.9001 | 858.77 | 1.404
298.15 K, x1 = 1 | 862.28 | 1.41
303.15 K, x1 = 0.1 | 810.47 | 2.351
303.15 K, x1 = 0.2001 | 818.46 | 1.936
303.15 K, x1 = 0.3 | 825.39 | 1.693
303.15 K, x1 = 0.4 | 831.52 | 1.537
303.15 K, x1 = 0.5001 | 837.01 | 1.44
303.15 K, x1 = 0.5999 | 841.96 | 1.385
303.15 K, x1 = 0.7003 | 846.52 | 1.327
303.15 K, x1 = 0.7998 | 850.66 | 1.305
303.15 K, x1 = 0.9001 | 854.47 | 1.292
303.15 K, x1 = 1 | 857.98 | 1.298
308.15 K, x1 = 0.1 | 806.56 | 2.077
308.15 K, x1 = 0.2001 | 814.45 | 1.73
308.15 K, x1 = 0.3 | 821.3 | 1.527
308.15 K, x1 = 0.4 | 827.36 | 1.398
308.15 K, x1 = 0.5001 | 832.81 | 1.315
308.15 K, x1 = 0.5999 | 837.72 | 1.267
308.15 K, x1 = 0.7003 | 842.25 | 1.221
308.15 K, x1 = 0.7998 | 846.36 | 1.202
308.15 K, x1 = 0.9001 | 850.16 | 1.195
308.15 K, x1 = 1 | 853.68 | 1.2
313.15 K, x1 = 0.1 | 802.62 | 1.845
313.15 K, x1 = 0.2001 | 810.42 | 1.559
313.15 K, x1 = 0.3 | 817.19 | 1.389
313.15 K, x1 = 0.4 | 823.19 | 1.281
313.15 K, x1 = 0.5001 | 828.58 | 1.211
313.15 K, x1 = 0.5999 | 833.46 | 1.17
313.15 K, x1 = 0.7003 | 837.96 | 1.132
313.15 K, x1 = 0.7998 | 842.05 | 1.116
313.15 K, x1 = 0.9001 | 845.85 | 1.112
313.15 K, x1 = 1 | 849.37 | 1.118
318.15 K, x1 = 0.1 | 798.65 | 1.639
318.15 K, x1 = 0.2001 | 806.35 | 1.401
318.15 K, x1 = 0.3 | 813.06 | 1.258
318.15 K, x1 = 0.4 | 819 | 1.167
318.15 K, x1 = 0.5001 | 824.35 | 1.108
318.15 K, x1 = 0.5999 | 829.19 | 1.074
318.15 K, x1 = 0.7003 | 833.67 | 1.042
318.15 K, x1 = 0.7998 | 837.74 | 1.03
318.15 K, x1 = 0.9001 | 841.53 | 1.028
318.15 K, x1 = 1 | 845.06 | 1.035
323.15 K, x1 = 0.1 | 794.65 | 1.48
323.15 K, x1 = 0.2001 | 802.26 | 1.281
323.15 K, x1 = 0.3 | 808.9 | 1.157
323.15 K, x1 = 0.4 | 814.79 | 1.078
323.15 K, x1 = 0.5001 | 820.1 | 1.028
323.15 K, x1 = 0.5999 | 824.91 | 0.9986
323.15 K, x1 = 0.7003 | 829.36 | 0.9718
323.15 K, x1 = 0.7998 | 833.43 | 0.9628
323.15 K, x1 = 0.9001 | 837.21 | 0.9653
323.15 K, x1 = 1 | 840.74 | 0.9708
